Experimental data: article PMC3605724 (Molecular pharmaceutics, 2013)
Several values for one entry are separate records, joined by “and”; a condition that tells them apart may be missing. Equal entries are not always repeated. Structures can show the parent of a compound that is named as a salt. Where two headings read alike, the source gives them in different places.

What was measured:
[1] = test system: rat intestine (proximal jejunum and distal ileum); assay: In situ single-pass intestinal perfusion; format: in vivo; settings: physiological vs alternate pH, HDS, n = 6
P-gp = settings: cited from earlier work
[2] = Transport studies across Caco-2 cell monolayers; settings: human
Caco-2 cell monolayers [3] = assay: Transport studies across Caco-2 cell monolayers
pKa = format: physicochemical
Caco-2 cell monolayers [4] = settings: human, Caco-2, pH 7.5
[5] = cited from earlier work
rat small intestine = settings: cited from earlier work
Caco-2 cells = settings: Caco-2, initial concentration based on HDS in 250 ml water; cited from earlier work

SMILES: COCCc1ccc(OCC(O)CNC(C)C)cc1 (stereo not drawn) [Metoprolol]
- Effect of change of pH (6.5 vs 7.5) on permeability in jejunum and ileum [1]: did not significantly affect
- Interaction with P-gp (P-gp): does not interact with P-gp
- Papp at 120 min ([2]; Caco-2, pH 6.5): 9.44 ± 3.44 ×10⁻⁶ cm/s
- Papp at 120 min ([2]; Caco-2, pH 7.5): 23.2 ± 7.1 ×10⁻⁶ cm/s
- Effect of verapamil on permeability in AP-BL and BL-AP directions (Caco-2 cell monolayers [3]; 0.1 mM verapamil, 0.1 times HDS (40 μg/ml), AP pH 7.5): no effect
- Increase of ER under AP pH 6.5 (Caco-2 cell monolayers [3]; AP pH 6.5 compared with AP pH 7.5): 3.6 times

SMILES: CC(CCc1ccccc1)NCC(O)c1ccc(O)c(C(N)=O)c1 (stereo not drawn) [Labetalol]
- Effect of change of pH (6.5 vs 7.5) on permeability in jejunum and ileum [1]: did not significantly affect
- Isoelectric point (maximum unionized fraction) (pKa): 8.4 pH
- Increase in AP-BL direction transport caused by verapamil (Caco-2 cell monolayers [4]): 1.5 times
- Time to reach maximum plasma concentration (tmax) ([5]; 100 mg oral dose, healthy volunteers): 48 min
- Systemic BA (mean) ([5]; hypertensive subjects): 33%
- Dose excreted in the urine as unchanged drug ([5]; man): up to 5%
- Orally administered dose of radioactivity excreted by urine ([5]; within 24 h, two subjects, 200 mg oral dose): 55% and 60%
- Increase in apparent absorption rate constant of labetalol produced by verapamil (rat small intestine; highest labetalol concentration (100)): about 53%
- Increase in apparent absorption rate constant of labetalol produced by verapamil (rat small intestine; lowest labetalol concentration (10)): about 84%
- Papp at 120 min ([2]; Caco-2, pH 6.5): 5.96 ± 1.96 ×10⁻⁶ cm/s
- Papp A→B at 120 min, 120 μg/ml ([2]; Caco-2, pH 7.5): 14.2 ± 1.5 ×10⁻⁶ cm/s
- Papp B→A at 120 min, 120 μg/ml ([2]; Caco-2, pH 7.5): 46.7 ± 6.5 ×10⁻⁶ cm/s
- Papp at 120 min ([2]; Caco-2, pH 7.5): 15.9 ± 2.2 ×10⁻⁶ cm/s

SMILES: CC(CCc1ccccc1)NCC(O)c1ccc(O)c(C(N)=O)c1 (stereo not drawn) [labetalol hydrochloride]
- Absorption from the GI tract ([5]; FDA product information of Trandate): completely absorbed

SMILES: CCn1cc(C(=O)O)c(=O)c2cc(F)c(N3CCNC(C)C3)c(F)c21 (stereo not drawn) [lemofloxacin, lomefloxacin]
- Permeability classification based on comparison to labetalol (Caco-2 cells): high permeability
